Source: ChEMBL document CHEMBL1121776, “Folate antagonists. 18. Synthesis and antimalarial effects of N6-(arylmethyl)-N6-methyl-2,4,6-pteridinetriamines and related N6,N6-disubstituted 2,4,6-pteridinetriamines” (1981)
In brackets after ≈: the same amount, converted by molar mass.

What was measured:
Type in all cases: functional
[1] = test system: Staphylococcus aureus; test: In vitro antibacterial effect against Staphylococcus aureus S18713 by using gradient plate test
[2] = test system: Mus musculus; test: Parenteral antimalarial effect against Plasmodium berghei in mice (Mus musculus) at a dose of 320 subcutaneous mg/kg
[3] = test system: Staphylococcus aureus; test: In vitro antibacterial effect against Staphylococcus aureus UC-76 by using gradient plate test
[4] = test system: Mus musculus; test: Parenteral antimalarial effect against Plasmodium berghei in mice (Mus musculus) at a dose of 80 mg/kg subcutaneously; details: route subcutaneous
[5] = test system: Mus musculus; test: Parenteral antimalarial effect against Plasmodium berghei in mice (Mus musculus) at a dose of 10sc mg/kg
[6] = test system: Mus musculus; test: Parenteral antimalarial effect against Plasmodium berghei in mice (Mus musculus) at a dose of 20sc mg/kg
[7] = test system: Shigella sonnei; test: In vitro antibacterial effect against Shigella sonnei C-10 by using gradient plate test
[8] = test system: Enterococcus faecalis; test: In vitro antibacterial effect against Streptococcus faecalis MGH-2
[9] = test system: Mus musculus; test: Parenteral antimalarial effect against Plasmodium berghei in mice (Mus musculus) at a dose of 40 mg/kg subcutaneously; details: route subcutaneous
[10] = test system: Pseudomonas aeruginosa; test: In vitro antibacterial effect against Pseudomonas aeruginosa 28 by using gradient plate test
[11] = test system: Mycobacterium tuberculosis; test: In vitro antibacterial effect against Mycobacterium tuberculosis H37Rv by using gradient plate test
[12] = test system: Mus musculus; test: Parenteral antimalarial effect against Plasmodium berghei in mice (Mus musculus) at a dose of 160 subcutaneously mg/kg
[13] = test system: Escherichia coli; test: In vitro antibacterial effect against Escherichia coli Vogel by using gradient plate test
[14] = test system: Pseudomonas aeruginosa; test: In vitro antibacterial effect against P.a 28 by using gradient plate test
[15] = test system: Escherichia coli; test: In vitro antibacterial effect against E. c. Vogel by using gradient plate test
[16] = test system: Enterococcus faecalis; test: In vitro antibacterial effect against S. f MGH-2
[17] = test system: Mycobacterium tuberculosis; test: In vitro antibacterial effect against M. t. H37Rv by using gradient plate test
[18] = test system: Staphylococcus aureus; test: In vitro antibacterial effect against S. a. UC-76 by using gradient plate test
[19] = test system: Shigella sonnei; test: In vitro antibacterial effect against S. s C-10 by using gradient plate test
[20] = test system: Staphylococcus aureus; test: In vitro antibacterial effect against S. a. S18713 by using gradient plate test
[21] = test system: Mus musculus; test: Parenteral antimalarial effect against Plasmodium berghei in mice (Mus musculus) at a dose of 160 mg/kg subcutaneously 10/10; details: route subcutaneous
[22] = test system: Mus musculus; test: Parenteral antimalarial effect against Plasmodium berghei in mice (Mus musculus) at a dose of 640 mg/kg subcutaneously; Number of mice (Mus musculus) surviving at 60 days post infection and cured 10/10; details: route subcutaneous
[23] = test system: Mus musculus; test: Parenteral antimalarial effect against Plasmodium berghei in mice (Mus musculus) at a dose of 320 mg/kg subcutaneously; 5/5; details: route subcutaneous
[24] = test system: Mus musculus; test: Parenteral antimalarial effect against Plasmodium berghei in mice (Mus musculus) at a dose of 640 subcutaneously mg/kg
[25] = test system: Mus musculus; test: Parenteral antimalarial effect against Plasmodium berghei in mice (Mus musculus) at a dose of 160 mg/kg subcutaneously; Number of mice (Mus musculus) surviving at 60 days post infection and cured 8/10; details: route subcutaneous
[26] = test system: Mus musculus; test: Parenteral antimalarial effect against Plasmodium berghei in mice (Mus musculus) at a dose of 160 mg/kg subcutaneously; Number of mice (Mus musculus) surviving at 60 days post infection and cured 6/10; details: route subcutaneous
[27] = test system: Mus musculus; test: Parenteral antimalarial effect against Plasmodium berghei in mice (Mus musculus) at a dose of 320 mg/kg subcutaneously; Number of mice (Mus musculus) surviving at 60 days post infection and cured 3; No of toxic deaths 2; details: route subcutaneous

Row | SMILES | MIC [1] [µg/mL] | MST [2] [days] | MIC [3] [µg/mL] | MST [4] [days] | MST [6] [days] | MIC [7] [µg/mL] | MIC [8] [µg/mL] | MST [9] [days] | MIC [10] [µg/mL] | MIC [11] [µg/mL] | MST [12] [days] | MIC [15] [µg/mL] | MST [24] [days] | other results
1 | CN(Cc1ccc2c(c1)Cc1ccccc1-2)c1cnc2nc(N)nc(N)c2n1 | < 0.25 | 5 | < 0.25 | 2 | 6.3 | > 25 | < 0.25 | 8.1 | > 25 | 5 (≈ 13.5 µM) | 5 |  |  | MST [5]: 3.5 days; MIC [13]: > 25 µg/mL
2 | COc1cc(Cc2cnc(N)nc2N)cc(OC)c1OC [TRIMETHOPRIM] |  |  |  |  |  |  |  |  |  |  |  | > 25 |  | MIC [14]: > 25 µg/mL; MIC [16]: < 0.25 µg/mL; MIC [17]: > 25 µg/mL; MIC [18]: < 0.25 µg/mL; MIC [19]: > 25 µg/mL; MIC [20]: < 0.25 µg/mL
3 | CN(Cc1ccc(Cl)c(Cl)c1)c1cnc2nc(N)nc(N)c2n1 | < 0.25 |  | < 0.25 |  | 10.6 | > 25 | < 0.25 |  | > 25 | 10 (≈ 28.6 µM) |  | > 25 |  | MST [21]: 10 days; MST [5]: 2.5 days; MST [22]: 10 days; MST [23]: 5 days
4 | CC1(C)N=C(N)N=C(N)N1c1ccc(Cl)cc1.Cl [CHLORCYCLOGUANIL HYDROCHLORIDE] |  | 3 |  | 2 | 7.9 |  |  | 1 |  |  | 5 |  | 5 | 
5 | CN(Cc1ccccc1)c1cnc2nc(N)nc(N)c2n1 | < 0.25 |  | < 0.25 |  |  | > 25 | < 0.25 | 0.1 | > 25 | 10 (≈ 35.5 µM) | 0.1 | 10 (≈ 35.5 µM) | 0.3 | 
6 | CN(Cc1c2ccccc2cc2ccccc12)c1cnc2nc(N)nc(N)c2n1 |  | 1.3 |  | 0.1 | 0.1 |  |  |  |  |  |  |  |  | 
7 | Nc1nc(N)c2nc(N3CCc4ccccc4C3)cnc2n1 |  |  |  |  |  |  |  | 0.1 |  |  | 0.3 |  | 0.5 | 
8 | Nc1nc(N)c2nc(N3CCCCC3)cnc2n1 |  | 0.9 |  | 0.3 | 0.3 |  |  |  |  |  |  |  |  | 
9 | CN(Cc1ccc(F)cc1)c1cnc2nc(N)nc(N)c2n1 | < 0.25 |  | < 0.25 |  | 8.5 | > 25 | < 0.25 |  | > 25 | 2.5 (≈ 8.35 µM) |  | > 25 |  | MST [25]: 8 days; MST [22]: 10 days
10 | CN(CCc1ccccc1)c1cnc2nc(N)nc(N)c2n1 | < 0.25 | 1.7 | < 0.25 | 0.1 | 0.1 | > 25 | < 0.25 | 0.1 | > 25 | > 25 | 0.7 |  | 3.9 | MIC [13]: > 25 µg/mL
11 | CN(Cc1ccccc1Cl)c1cnc2nc(N)nc(N)c2n1 | < 0.25 |  | < 0.25 |  | 9.5 | > 25 | < 0.25 |  | > 25 | 5 (≈ 15.8 µM) |  | > 25 |  | MST [26]: 6 days; MST [27]: 3 days
12 | COc1ccc(CN(C)c2cnc3nc(N)nc(N)c3n2)c2ccccc12 | < 0.25 | 5 | < 0.25 | 5 | 6.5 | > 25 | < 0.25 | 5 | > 25 | 2.5 (≈ 6.92 µM) | 5 |  | 5 | MIC [13]: > 25 µg/mL
